{"source": "patent US6653442B1", "about": "“Protegrins” (priority 1993, dated 2003)", "key": {"E. coli ML-35P": {"system": "E. coli ML-35P", "assay": "Radial diffusion assay in agarose gels, E. coli", "assay_type": "cell-based", "settings": "for activity against E. coli in NaCl (FIG. 5b): in the presence of 100 mM NaCl; for antibacterial activity against E. coli (FIG. 4a): radial diffusion, underlay agar pH 6.5"}, "[1]": {"system": "Listeria monocytogenes, strain EGD", "assay": "Radial diffusion assay in agarose gels, L. monocytogenes", "assay_type": "cell-based", "settings": "for antibacterial activity against Listeria monocytogenes (FIG. 4b): radial diffusion, underlay agar pH 6.5", "protocol": "Aliquots (66 μl) of each fraction were dried by vacuum centrifugation and resuspended in 6.6 μl of 0.01% acetic acid. Five μl samples of this concentrate were tested for antimicrobial activity against E. coliML-3, L. monocytogenes, strain EGD and C. albicans, strain 820, using radiodiffusion and gel overlay techniques as described by Lehrer, R. I. et al. J Immunol Meth (1991) 137:167-173. […] The units of activity in the radial diffusion assay were measured as described; 10 units correspond to a 1 mm diameter clear zone around the sample well. Activity was found in a large number of fractions.\nThe radial diffusion assay in agarose gels described in Example 1 was also used to test the activity of the purified protegrins. FIGS. 4a, 4b and 4c show the results against three test organisms in units described as above.\nThe antimicrobial activity of the linearalized forms was also compared with that of the native protegrins. Both linearalized and cyclic forms of the protegrins tested continue to show antimicrobial activity, although the effectiveness of these peptides as antimicrobials depends on the nature of the target organism and on the test conditions. The antimicrobial activity of native PG-1 and its linearalized form (cam-PG-1) and PG-3 and its linearalized form (cam-PG-3) were tested according to the procedure set forth in Example 1 as described by Lehrer, R. I. et al. J Immunol Meth (1991) 137:167-173.\nUsing standard solid phase techniques, a protegrin having the amino acid sequence of PG-1, but wherein every amino acid is in the D form was prepared. This form of protegrin was tested against E. coli, L. monocytogenes, C. albicans and other microbes in the absence and presence of protease and otherwise as described for the radiodiffusion assay in agarose gels set forth in Example 1.\nThe kite and bullet PG-1 compounds prepared in Example 12 were tested for antimicrobial activity using the radial diffusion assay described in Example 1 as published by Lehrer, R. I. et al., J Immunol Meth (1991) 137:167-173, except that the underlay agars contained […] sodium phosphate buffer with a final pH of 7.4. As described in Example 1, 0.3 mg/ml tripticase soy broth powder and 1% agarose were used as well in the underlay agar. In some cases 100 mM NaCl or RPMI plus 2.5% normal human serum (NHS) was added to the agar."}, "C. albicans, strain 820": {"system": "C. albicans, strain 820", "assay_type": "cell-based, Candida albicans", "settings": "for activity against C. albicans in NaCl (FIG. 5a): in the presence of 100 mM NaCl; for antifungal activity against Candida albicans (FIG. 4c): radial diffusion, underlay agar pH 6.5", "procedure": "Similarly, using C. albicans as a target organism, underlayers were prepared with 10 mM sodium phosphate with and without 10% normal human serum."}, "Staphylococcus aureus": {"system": "Staphylococcus aureus", "assay": "Radial diffusion assay in agarose gels, S. aureus", "assay_type": "cell-based"}, "K. pneumoneae 270": {"system": "K. pneumoneae 270", "assay": "Radial diffusion assay in agarose gels, K. pneumoniae", "assay_type": "cell-based"}, "human leukocyte elastase": {"target": "human leukocyte elastase (Homo sapiens, UniProt P08246)", "sequence (P08246 30-267)": "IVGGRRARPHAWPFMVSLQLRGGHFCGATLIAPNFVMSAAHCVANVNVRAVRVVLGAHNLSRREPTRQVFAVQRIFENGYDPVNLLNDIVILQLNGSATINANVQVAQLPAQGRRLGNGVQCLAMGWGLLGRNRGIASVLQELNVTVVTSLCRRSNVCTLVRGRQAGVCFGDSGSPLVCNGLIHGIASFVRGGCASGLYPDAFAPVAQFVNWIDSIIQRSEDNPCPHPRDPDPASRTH", "assay_type": "in vitro ADME", "settings": "pH 7"}, "[2]": {"target": "human leukocyte cathepsin G (Homo sapiens, UniProt P08311)", "sequence (P08311 21-244)": "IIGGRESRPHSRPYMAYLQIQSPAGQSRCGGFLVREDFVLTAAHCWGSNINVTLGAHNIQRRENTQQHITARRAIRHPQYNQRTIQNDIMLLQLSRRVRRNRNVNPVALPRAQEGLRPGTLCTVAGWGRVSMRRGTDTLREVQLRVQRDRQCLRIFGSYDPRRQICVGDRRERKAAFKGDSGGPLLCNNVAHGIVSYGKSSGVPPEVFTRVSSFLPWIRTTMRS", "assay_type": "in vitro ADME", "settings": "pH 7"}, "[3]": {"system": "lipid polysaccharide (LPS) of E. coli strain 0.55B5", "assay": "Limulus amebocyte lysate (LAL) test for endotoxin binding", "assay_type": "biochemical", "settings": "for gel formation in LAL test: LPS 0.05 endotoxin unit/ml"}, "T. pallidum": {"system": "T. pallidum", "assay": "Treponema pallidum immobilization assay", "assay_type": "cell-based", "procedure": "Bacteriocidal activity against this organism, which is the etiologic agent of syphilis, was also tested. Peptides were evaluated at a series of concentrations of 1.758 μg to 56.25 μg in 90 μl of unheated normal rabbit serum. The serum served as a nutrient for the spirochetes to allow their survival during incubation as well as providing a source of complement. Ten μl of a suspension of T. pallidum containing about 5×10^7/μl organisms was added to each tube and the mixtures with the appropriate peptides were incubated at 34° C. under 95 k N2 and 5% CO2. At time zero, just prior to incubation, 4 hours and 16 hours, 25 randomly selected organisms were examined for the presence or absence of motility. The 50 k immobilizing end point (IE50) was calculated to indicate the concentration needed to immobilize 50% of the spirochetes."}, "pepsin": {"system": "pepsin", "settings": "4 hours at pH 2.0 with 0.5 μg/ml pepsin, then neutralized"}, "[4]": {"system": "N. gonorrhoeae strains FA 19 and F 62", "procedure": "Nonpiliated transparent variants of strains FA 19 and F 62 were propagated on GCB agar plates containing glucose and iron supplements overnight at 37° C. under 3.8% V/V CO2. These strains were chosen for their adaptability to the assay.\nThe overnight growth is removed from the agar plate and suspended in GCB broth containing supplements and sodium bicarbonate and grown with shaking at 37° C. to mid log phase. The culture is diluted 1:100 in GCB broth to give about 10^6 CFU/ml and serial dilutions were plated onto GCB agar.\nTen μl of each dilution is added to a sterile polystyrene tube containing 90 μl of diluted bacteria and the tubes are shaken at 37° C. for 45 minutes. The contents are serially diluted 1:10 and plated on to GCB agar plates which are incubated in a CO2 incubator. CFU are counted after 24 hours and the log bactericidal activity calculated."}, "[5]": {"system": "Trichomonas vaginallis strain C1 (ATCC 30001); strains MR and TV", "assay": "Trichomonas vaginallis exposure assay"}, "HIVJR-CSF and HIVJR-FL": {"system": "HIVJR-CSF and HIVJR-FL", "assay": "HIV infection of human peripheral blood mononuclear cells, p24 antigen", "procedure": "Briefly, the mononuclear cell fraction is recovered from normal donor leukopacs from the American Red Cross using a Ficoll-hypaque density gradient. The mononuclear cells are resuspended at 1×10^6 cells per ml in RPMI 1640 medium with 20% fetal bovine serum, 1% penn/strep with fungizone and 0.5% PHA and incubated 24 hours at 37° C. in 5% CO2. The cells are centrifuged, washed and then expanded for 24 hours in growth medium.\nNon-laboratory adapted, cloned HIVJR-CSF and HIVJR-FL were electroporated into the human peripheral blood mononuclear cells prepared as described above. Titers were determined and in general, multiplicities of infection (MOI) of about 4,000 infectious units per cell are used (which corresponds to 25-40 picograms per ml HIV p24 antigen in the supernatant).\nIn the assay, the HIV stocks prepared as above were diluted to the correct MOI and the PBM are added to 24 well plates at a concentration of 2×10^6 per ml. One μl total volume is added to each well. The peptide to be tested is added in growth medium to achieve the final desired concentration. Then the appropriate number of MOI are added. To assay viral growth, 200 μl of supernatant is removed on days 3 and 7 and the concentration of p24 antigen is determined using a commercial assay (Coulter Immunology, Hialeah, Fla.). Controls include duplicate wells containing cells alone, cells plus peptide at 5 μg/ml cells with virus but not peptide and cells with virus in the presence of AZT at 10^−5 M-10^−8 M."}, "Candida albicans": {"system": "Candida albicans", "assay": "Radial diffusion assay in 25 mM borate buffer, Candida albicans", "assay_type": "cell-based", "settings": "listed as nPG-3"}, "L. monocytogenes": {"system": "L. monocytogenes", "assay": "Radial diffusion assay in 25 mM borate buffer, L. monocytogenes", "assay_type": "cell-based", "settings": "listed as nPG-3"}, "E. coli": {"system": "E. coli", "assay": "Antimicrobial activity with and without lysozyme in borate buffered saline", "assay_type": "cell-based", "settings": "presence vs absence of lysozyme", "source_text": "This effect was more pronounced when the PG-3 was autoclaved and similar patterns were obtained for both the free-acid form and the amide. Accordingly, the protegrins may be used as preservatives in such compositions or as antimicrobials for treatment of eye infections."}}, "note": "Bridge positions count the residues as written; N and C are the ends. Peptide text beside a SMILES is read from it.", "data": [{"molecule": "CC(C)C[C@H](NC(=O)[C@H](CCCNC(=N)N)NC(=O)CNC(=O)CNC(=O)[C@@H](N)CCCNC(=N)N)C(=O)N[C@H]1CSSC[C@@H](C(=O)N[C@H](C(=O)NCC(=O)N[C@@H](CCCNC(=N)N)C(N)=O)C(C)C)NC(=O)[C@H](C(C)C)NC(=O)[C@@H]2CSSC[C@H](NC(=O)[C@H](Cc3ccc(O)cc3)NC1=O)C(=O)N[C@@H](CCCNC(=N)N)C(=O)N[C@@H](CCCNC(=N)N)C(=O)N[C@@H](CCCNC(=N)N)C(=O)N[C@@H](Cc1ccccc1)C(=O)N2", "note": "[PG-1, R-G-G-R-L-C-Y-C-R-R-R-F-C-V-C-V-G-R]", "values": [{"measurement": "inhibition of growth of E. coli (FIG. 12a)", "setting": "E. coli ML-35P; absence of protease", "result": "equally effective"}, {"measurement": "activity against E. coli in NaCl (FIG. 5b)", "setting": "E. coli ML-35P", "result": "retain their activity"}, {"measurement": "antibacterial activity against E. coli (FIG. 4a)", "setting": "E. coli ML-35P", "result": "more effective against E. coli ML-35P than HNP-1 and only slightly less effective than NP-1"}, {"measurement": "inhibition of growth of L. monocytogenes (FIG. 12d)", "setting": "[1]; absence of proteases", "result": "comparably active"}, {"measurement": "inhibition of growth of L. monocytogenes (FIG. 12c)", "setting": "[1]; presence of trypsin, chymotrypsin", "result": "adversely affected"}, {"measurement": "antibacterial activity against Listeria monocytogenes (FIG. 4b)", "setting": "[1]", "result": "effective"}, {"measurement": "activity against C. albicans in NaCl (FIG. 5a)", "setting": "C. albicans, strain 820", "result": "retain their activity"}, {"measurement": "antifungal activity against Candida albicans (FIG. 4c)", "setting": "C. albicans, strain 820", "result": "effective"}, {"measurement": "antibacterial activity against S. aureus (FIG. 4d)", "setting": "Staphylococcus aureus", "result": "inhibit the growth"}, {"measurement": "antibacterial activity against K. pneumoneae (FIG. 4e)", "setting": "K. pneumoneae 270", "result": "inhibit the growth"}, {"measurement": "degradation by human leukocyte elastase", "setting": "human leukocyte elastase", "result": "not degraded"}, {"measurement": "degradation by human leukocyte cathepsin G", "setting": "[2]", "result": "not degraded"}, {"measurement": "gel formation in LAL test", "setting": "[3]; 1.0 μg peptide in 0.2 ml", "result": "no gel"}, {"measurement": "gel formation in LAL test, cyclic vs linearalized (Table 3)", "setting": "[3]; 2.5 μg peptide", "result": "no gel"}, {"measurement": "gel formation in LAL test", "setting": "[3]; 2.5 μg peptide in 0.2 ml", "result": "no gel"}, {"measurement": "gel formation in LAL test, cyclic vs linearalized (Table 3)", "setting": "[3]; 5 μg peptide", "result": "no gel"}, {"measurement": "gel formation in LAL test", "setting": "[3]; 5 μg peptide in 0.2 ml", "result": "no gel"}, {"measurement": "gel formation in LAL test", "setting": "[3]; 10 μg peptide in 0.2 ml", "result": "no gel"}, {"measurement": "Activity against human STD pathogens: Treponema pallidum", "setting": "T. pallidum", "result": "Active"}, {"measurement": "residual antimicrobial activity against C. albicans, E. coli and L. monocytogenes after pepsin", "setting": "pepsin", "result": "fully retained"}, {"measurement": "Activity against human STD pathogens: Neisseria gonorrhoeae", "setting": "[4]", "result": "Active"}, {"measurement": "Activity against human STD pathogens: Trichomonas vaginalis", "setting": "[5]", "result": "Moderately"}, {"measurement": "growth in Diamond's medium after exposure", "setting": "[5]; strain C1, 50 μg/ml", "result": "failed to grow"}, {"measurement": "motility of T. vaginallis", "setting": "[5]; strain C1, 50 μg/ml, RPMI+1% fetal calf serum, within a few minutes", "result": "became stationary"}, {"measurement": "lysis of T. vaginallis", "setting": "[5]; strain C1, 50 μg/ml, over the ensuing 15-30 minutes", "result": "lysed"}, {"measurement": "susceptibility of metronidazole-resistant clinical isolates", "setting": "[5]; strains MR and TV, 100 and 50 μg/ml", "result": "susceptible"}, {"measurement": "Activity against human STD pathogens: HIV-1", "setting": "HIVJR-CSF and HIVJR-FL", "result": "Active"}, {"measurement": "antiviral activity by time of addition", "setting": "HIVJR-CSF and HIVJR-FL; 2 hours prior to virus, at the time of virus, or 2 hours after infection", "result": "showed antiviral activity"}, {"measurement": "antiviral activity by time of addition", "setting": "HIVJR-CSF and HIVJR-FL; added 24 hours after infection", "result": "no antiviral activity"}]}, {"molecule": "CC(C)C[C@H](NC(=O)CNC(=O)CNC(=O)CNC(=O)[C@@H](N)CCCNC(=N)N)C(=O)N[C@H]1CSSC[C@@H](C(=O)N[C@H](C(=O)NCC(=O)N[C@@H](CCCNC(=N)N)C(N)=O)C(C)C)NC(=O)[C@H](C(C)C)NC(=O)[C@@H]2CSSC[C@H](NC(=O)[C@H](Cc3ccc(O)cc3)NC1=O)C(=O)N[C@@H](CCCNC(=N)N)C(=O)N[C@@H](CCCNC(=N)N)C(=O)N[C@@H](CCCNC(=N)N)C(=O)N[C@@H](Cc1ccccc1)C(=O)N2", "note": "[PG-3, R-G-G-G-L-C-Y-C-R-R-R-F-C-V-C-V-G-R] (H-RGGGLCYCRRRFCVCVGR-NH2; disulfide 6-15, 8-13; N-terminus assumed)", "values": [{"measurement": "activity against E. coli in NaCl (FIG. 5b)", "setting": "E. coli ML-35P", "result": "retain their activity"}, {"measurement": "antibacterial activity against E. coli (FIG. 4a)", "setting": "E. coli ML-35P", "result": "more effective against E. coli ML-35P than HNP-1 and only slightly less effective than NP-1"}, {"measurement": "antibacterial activity against Listeria monocytogenes (FIG. 4b)", "setting": "[1]", "result": "effective"}, {"measurement": "activity against Candida albicans in fetal calf serum (FIG. 5c)", "setting": "C. albicans, strain 820; 90% fetal calf serum", "result": "retained"}, {"measurement": "activity against C. albicans in NaCl (FIG. 5a)", "setting": "C. albicans, strain 820", "result": "retain their activity"}, {"measurement": "antifungal activity against Candida albicans (FIG. 4c)", "setting": "C. albicans, strain 820", "result": "effective"}, {"measurement": "degradation by human leukocyte elastase", "setting": "human leukocyte elastase", "result": "not degraded"}, {"measurement": "degradation by human leukocyte cathepsin G", "setting": "[2]", "result": "not degraded"}, {"measurement": "gel formation in LAL test, cyclic vs linearalized (Table 3)", "setting": "[3]; 2.5 μg peptide", "result": "no gel"}, {"measurement": "gel formation in LAL test", "setting": "[3]; 2.5 μg peptide in 0.2 ml, listed as nPG-3", "result": "trace"}, {"measurement": "gel formation in LAL test, cyclic vs linearalized (Table 3)", "setting": "[3]; 5 μg peptide", "result": "no gel"}, {"measurement": "gel formation in LAL test", "setting": "[3]; 5 μg peptide in 0.2 ml", "result": "no gel"}, {"measurement": "gel formation in LAL test", "setting": "[3]; 10 μg peptide in 0.2 ml", "result": "no gel"}, {"measurement": "ESTIMATED MINIMAL FUNGICIDAL CONCENTRATIONS", "setting": "Candida albicans; 25 mM borate buffer", "result": 32.0, "unit": "µg/mL"}, {"measurement": "ESTIMATED MINIMAL FUNGICIDAL CONCENTRATIONS", "setting": "Candida albicans; borate buffer + 120 mM NaCl", "result": 9.0, "unit": "µg/mL"}, {"measurement": "ESTIMATED MINIMAL FUNGICIDAL CONCENTRATIONS", "setting": "Candida albicans; borate buffer + EDTA & NaCl", "result": 8.0, "unit": "µg/mL"}, {"measurement": "ESTIMATED MINIMAL BACTERICIDAL CONCENTRATIONS", "setting": "L. monocytogenes; 25 mM borate buffer", "result": 25.0, "unit": "µg/mL"}, {"measurement": "ESTIMATED MINIMAL BACTERICIDAL CONCENTRATIONS", "setting": "L. monocytogenes; borate buffer + 120 mM NaCl", "result": 7.0, "unit": "µg/mL"}, {"measurement": "ESTIMATED MINIMAL BACTERICIDAL CONCENTRATIONS", "setting": "L. monocytogenes; borate buffer + EDTA & NaCl", "result": 5.7, "unit": "µg/mL"}, {"measurement": "effect of lysozyme on effectiveness against E. coli", "setting": "E. coli", "result": "enhanced the effectiveness"}, {"measurement": "residual antimicrobial activity against C. albicans, E. coli and L. monocytogenes after pepsin", "setting": "pepsin", "result": "fully retained"}, {"measurement": "motility of T. vaginallis", "setting": "[5]; 25 μg/ml", "result": "retained their motility"}]}]}
